Consider 6 compounds from ChEMBL document CHEMBL1130772, “New nonsteroidal androgen receptor modulators based on 4-(trifluoromethyl)-2(1H)-pyrrolidino[3,2-g] quinolinone” (Bioorg Med Chem Lett, 1998).

Experiment [1] addresses T1, Androgen receptor (Homo sapiens, UniProt P10275).
T1 sequence (P10275 whole entry): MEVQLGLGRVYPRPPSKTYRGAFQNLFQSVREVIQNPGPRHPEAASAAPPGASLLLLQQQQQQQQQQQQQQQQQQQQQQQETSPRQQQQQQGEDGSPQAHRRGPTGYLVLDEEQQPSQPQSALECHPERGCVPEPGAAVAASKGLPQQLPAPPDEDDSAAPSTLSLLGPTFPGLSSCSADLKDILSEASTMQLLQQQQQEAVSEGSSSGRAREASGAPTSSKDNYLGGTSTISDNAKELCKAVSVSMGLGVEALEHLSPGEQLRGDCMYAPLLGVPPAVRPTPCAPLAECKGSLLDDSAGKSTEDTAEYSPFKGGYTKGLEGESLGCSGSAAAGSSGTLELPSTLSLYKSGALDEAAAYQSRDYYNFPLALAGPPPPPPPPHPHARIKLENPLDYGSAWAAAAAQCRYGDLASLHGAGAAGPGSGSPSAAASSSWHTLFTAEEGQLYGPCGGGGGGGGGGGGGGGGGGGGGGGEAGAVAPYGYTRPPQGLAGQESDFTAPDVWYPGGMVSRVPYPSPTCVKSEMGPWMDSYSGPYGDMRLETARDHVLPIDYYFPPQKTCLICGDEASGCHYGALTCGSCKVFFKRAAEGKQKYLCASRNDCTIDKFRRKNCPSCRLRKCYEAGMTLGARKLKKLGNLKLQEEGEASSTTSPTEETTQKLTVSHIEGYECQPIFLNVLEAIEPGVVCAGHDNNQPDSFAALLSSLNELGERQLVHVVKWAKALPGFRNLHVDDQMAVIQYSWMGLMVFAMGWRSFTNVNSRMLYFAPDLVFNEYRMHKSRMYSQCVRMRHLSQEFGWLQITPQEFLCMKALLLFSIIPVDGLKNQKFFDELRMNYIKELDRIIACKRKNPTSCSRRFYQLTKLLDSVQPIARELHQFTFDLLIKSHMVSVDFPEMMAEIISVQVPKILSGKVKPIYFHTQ
The experiment in a line: Binding affinity against hAR androgen receptor expressed in COS cells. Format: cell-based.

Experiment [2] concerns the target T1, Androgen receptor.
For experiment [3], the target named is T1, Androgen receptor. The following applies: cv-1.
Description: Agonistic activity against human androgen receptor (hAR) in co-transfected CV-1 cell
For experiment [4], the target named is T1, Androgen receptor. The experiment in a line: Antagonistic activity (IC50) against human androgen receptor (hAR) in co-transfected CV-1 cell. Format: functional, cell-based.
Experiment [5] deals with T1, Androgen receptor. The experiment in a line: Binding affinity against Androgen receptor transfected into COS cells.
In experiment [6] the target is T1, Androgen receptor. The experiment in a line: Agonistic activity (EC50) against human androgen receptor (hAR) in co-transfected CV-1 cell. Format: functional, cell-based.
For another experiment, the target named is T2, Glucocorticoid receptor (Homo sapiens, UniProt P04150).
T2 sequence (P04150 whole entry): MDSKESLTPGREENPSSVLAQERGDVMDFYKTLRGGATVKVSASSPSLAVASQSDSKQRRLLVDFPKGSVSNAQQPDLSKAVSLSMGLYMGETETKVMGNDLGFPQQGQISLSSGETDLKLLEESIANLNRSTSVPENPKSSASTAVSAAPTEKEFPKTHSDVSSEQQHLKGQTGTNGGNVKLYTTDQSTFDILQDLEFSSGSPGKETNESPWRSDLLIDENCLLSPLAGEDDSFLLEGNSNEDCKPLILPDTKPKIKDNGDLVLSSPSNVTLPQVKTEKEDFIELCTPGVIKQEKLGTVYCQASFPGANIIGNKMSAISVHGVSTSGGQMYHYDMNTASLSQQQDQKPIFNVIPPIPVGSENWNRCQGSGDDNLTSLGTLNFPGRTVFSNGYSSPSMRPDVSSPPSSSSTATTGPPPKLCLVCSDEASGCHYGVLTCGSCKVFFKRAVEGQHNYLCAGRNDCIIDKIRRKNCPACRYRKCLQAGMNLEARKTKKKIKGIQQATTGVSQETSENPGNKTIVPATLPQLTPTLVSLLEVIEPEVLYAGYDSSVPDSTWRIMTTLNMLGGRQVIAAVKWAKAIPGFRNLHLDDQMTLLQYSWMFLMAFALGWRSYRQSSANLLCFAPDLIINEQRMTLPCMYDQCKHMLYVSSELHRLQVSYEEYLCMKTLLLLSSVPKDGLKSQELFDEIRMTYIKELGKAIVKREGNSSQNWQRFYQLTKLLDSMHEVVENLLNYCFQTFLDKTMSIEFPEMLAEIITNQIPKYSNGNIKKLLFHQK
The experiment in a line: (§1) Antagonistic activity against Glucocorticoid receptor in co-transfected CV-1 cell. Format: functional, cell-based.

The target of experiment [7] is T3, Glucocorticoid receptor (Homo sapiens) (UniProt P04150).
T3 sequence (whole entry): T2 sequence (P04150 whole entry)
The experiment is described as §1. Format: functional, cell-based.

The target in experiment [8] is T4, Estrogen receptor (Homo sapiens, UniProt Q92731+P03372). The experiment in a line: (§2) Antagonistic activity against Estrogen receptor in co-transfected CV-1 cell. Format: functional, cell-based.
Experiment [9] has as its target T4, Estrogen receptor. The description is as §2. Format: functional, cell-based. The source holds these as a separate data set.
Experiment [10] has as its target T5, Mineralocorticoid receptor (Homo sapiens) (UniProt P08235).
T5 sequence (whole entry): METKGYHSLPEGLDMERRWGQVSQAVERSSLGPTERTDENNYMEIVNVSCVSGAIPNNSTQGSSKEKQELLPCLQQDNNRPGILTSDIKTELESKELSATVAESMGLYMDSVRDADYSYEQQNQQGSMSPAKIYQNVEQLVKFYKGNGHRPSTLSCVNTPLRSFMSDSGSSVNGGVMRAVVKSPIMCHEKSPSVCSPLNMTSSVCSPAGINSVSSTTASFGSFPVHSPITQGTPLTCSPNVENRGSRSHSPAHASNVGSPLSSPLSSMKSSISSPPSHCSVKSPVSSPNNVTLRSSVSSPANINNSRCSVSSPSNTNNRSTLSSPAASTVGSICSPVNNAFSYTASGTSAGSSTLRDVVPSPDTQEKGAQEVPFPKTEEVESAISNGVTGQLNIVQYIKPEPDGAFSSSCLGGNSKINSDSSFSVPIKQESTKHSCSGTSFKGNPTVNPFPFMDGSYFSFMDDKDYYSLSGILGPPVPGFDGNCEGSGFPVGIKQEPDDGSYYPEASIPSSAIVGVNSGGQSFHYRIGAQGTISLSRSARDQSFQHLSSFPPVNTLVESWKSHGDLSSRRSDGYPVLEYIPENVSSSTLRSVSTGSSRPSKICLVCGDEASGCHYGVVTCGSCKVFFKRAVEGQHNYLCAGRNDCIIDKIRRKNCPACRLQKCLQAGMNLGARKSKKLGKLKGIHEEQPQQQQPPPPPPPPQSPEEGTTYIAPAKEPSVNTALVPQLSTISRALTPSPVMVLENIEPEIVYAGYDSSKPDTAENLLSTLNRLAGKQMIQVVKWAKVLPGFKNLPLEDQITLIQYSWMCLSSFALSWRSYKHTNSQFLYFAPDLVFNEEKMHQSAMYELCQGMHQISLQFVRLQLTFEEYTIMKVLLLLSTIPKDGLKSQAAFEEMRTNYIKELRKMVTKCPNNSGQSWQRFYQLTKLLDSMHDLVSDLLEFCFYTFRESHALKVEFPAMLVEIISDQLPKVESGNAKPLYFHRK
Put plainly: (§3) Antagonistic activity against hMR in co-transfected CV-1 cell. Format: functional, cell-based.

The target in experiment [11] is T6, Mineralocorticoid receptor (Homo sapiens, UniProt P08235).
T6 sequence (P08235 whole entry): T5 sequence (whole entry)
The experiment is described as §3. Format: functional, cell-based.

Experiment [12] deals with T7, Progesterone receptor (Homo sapiens) (UniProt P06401).
T7 sequence (whole entry): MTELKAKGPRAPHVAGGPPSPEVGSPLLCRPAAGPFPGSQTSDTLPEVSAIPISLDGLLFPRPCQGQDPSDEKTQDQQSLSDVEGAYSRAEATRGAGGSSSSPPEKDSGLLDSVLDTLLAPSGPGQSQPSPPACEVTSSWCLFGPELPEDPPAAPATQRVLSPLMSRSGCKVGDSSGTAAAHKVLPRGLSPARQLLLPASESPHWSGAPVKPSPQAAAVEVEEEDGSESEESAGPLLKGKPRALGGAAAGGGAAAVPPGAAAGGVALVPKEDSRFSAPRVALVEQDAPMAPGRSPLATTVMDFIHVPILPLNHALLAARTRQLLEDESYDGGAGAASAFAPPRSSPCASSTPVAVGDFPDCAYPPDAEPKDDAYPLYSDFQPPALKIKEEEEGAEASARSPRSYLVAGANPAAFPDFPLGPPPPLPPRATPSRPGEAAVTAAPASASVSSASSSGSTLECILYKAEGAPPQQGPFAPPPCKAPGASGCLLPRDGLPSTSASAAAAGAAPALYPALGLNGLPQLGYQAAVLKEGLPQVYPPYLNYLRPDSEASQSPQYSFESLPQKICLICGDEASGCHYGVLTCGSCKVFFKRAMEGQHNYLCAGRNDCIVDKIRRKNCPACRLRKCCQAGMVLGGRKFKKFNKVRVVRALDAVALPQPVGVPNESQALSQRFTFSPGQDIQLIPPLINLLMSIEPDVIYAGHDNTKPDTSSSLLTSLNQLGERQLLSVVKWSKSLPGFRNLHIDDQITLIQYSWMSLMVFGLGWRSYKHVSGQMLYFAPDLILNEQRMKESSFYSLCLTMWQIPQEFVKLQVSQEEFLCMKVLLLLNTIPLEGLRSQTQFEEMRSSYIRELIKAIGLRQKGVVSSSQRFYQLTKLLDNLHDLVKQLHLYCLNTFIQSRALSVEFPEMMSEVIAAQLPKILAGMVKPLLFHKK
Put plainly: (§4) Antagonistic activity against hPR in co-transfected CV-1 cell. Format: functional, cell-based.

Another experiment has as its target T8, Progesterone receptor (Homo sapiens, UniProt P06401).
T8 sequence (P06401 whole entry): T7 sequence (whole entry)
The experiment is described as §4. Format: functional, cell-based.

In the case of `CN1c2cc3c(cc2[C@H]2CCCC(C)(C)[C@H]21)c(C(F)(F)F)cc(=O)n3C`, affinity on Androgen receptor [1] was put at a Ki of 59 nM. In addition, on Androgen receptor [2], the IC50 was 27 nM. The EC50 result at Androgen receptor [3] is reported as “Not Active”.

At Androgen receptor [1], `CC1(C)CCC[C@@H]2c3cc4c(C(F)(F)F)cc(O)nc4cc3N[C@@H]21` returned a Ki of 79 nM. At Androgen receptor [2], inhibition was half-maximal at 26 nM (IC50). Further, the EC50 result on Androgen receptor [3] is given as “Not Active”.

In the case of `Cn1c(=O)cc(C(F)(F)F)c2cc3c(cc21)NCC3`, the affinity at Androgen receptor [1] corresponds to a Ki of 61 nM. The IC50 at Androgen receptor [2] stood at 56 nM. Further, the EC50 entry on Androgen receptor [3] is given as “Not Active”.

`C[C@@H]1c2cc3c(C(F)(F)F)cc(O)nc3cc2N[C@@H]1C`: the IC50 entry is “Not Active” against Androgen receptor [4]; 2.5 µM on Glucocorticoid receptor; above 10 µM on Estrogen receptor [9]; 2000 nM in [11]; 1900 nM at Progesterone receptor. On Androgen receptor [5], this compound gave a Ki of 6 nM. The compound also showed an EC50 at Androgen receptor [6] of 5 nM. For the same compound, the Efficacy in experiment [7] is 35%; at Estrogen receptor [8], below 20%; in [10] it was 29%; in experiment [12] it was 88%.

`CN1CCc2cc3c(C(F)(F)F)cc(=O)n(C)c3cc21` gave a Ki on Androgen receptor [1] of 167 nM. The same compound displayed an IC50 at Androgen receptor [2] of 197 nM. Further, the EC50 entry on Androgen receptor [3] is recorded as “Not Active”.

For the compound `Oc1cc(C(F)(F)F)c2cc3c(cc2n1)N[C@@H]1CCCC[C@H]31`, the IC50 entry against Androgen receptor [4] was “Not Active”; at Glucocorticoid receptor it was 5.8 µM; against Estrogen receptor [9], above 10 µM; in experiment [11], 2000 nM; against Progesterone receptor, 170 nM. Further, on Androgen receptor [5], the Ki amounted to 5 nM. At Androgen receptor [6], this compound returned an EC50 of 5 nM. The Efficacy in [7] is 33%; on Estrogen receptor [8], below 20%; in experiment [10], 54%; in experiment [12], 91%.

As a reminder, the Ki is a dissociation constant, usually derived from enzyme kinetics or from competition with a known ligand. Usually IC50 stands for the concentration needed to halve the response being measured. Higher therefore signals a need for much substance. For orientation: EC50 means the concentration needed to bring the measured effect to its halfway point.
